From publication PMC10303791 (BMC Biology, 2023)

Legend:
Experiment in all cases: two-electrode voltage clamp, oocytes, concentration-response
Format in all cases: cell-based
[1] = tested on: T1, Nanorana parkeri α4β2 nAChR, α4β2(FS); settings: agonist; α4:β2 cRNA ratio 1:3; -70 mV; Ba-ND96 with 1 µM atropine; room temperature; high-sensitivity site of biphasic fit, 95% CI
T1 construct: full-length single subunits, codon-optimized synthetic DNA in pGEMHE, cRNA co-injected in Xenopus laevis oocytes; behaves as 3α:2β (conjecture)
Excerpt: two-electrode voltage clamp, oocytes, concentration-response on Nanorana parkeri α4β2 nAChR, α4β2(FS)

[2] = molecular target: T2, Xenopus tropicalis α4β2 nAChR, α4β2(FS) (Xenopus tropicalis, UniProt A0A8J0QAC2+A4IIS6, A4IIS6:F131L/A4IIS6:S133C)
T2 construct: gene chrna4; full-length single subunits in pCMV-SPORT6 (Dharmacon), cRNA co-injected in Xenopus laevis oocytes; stoichiometry unknown
Excerpt: (§1) two-electrode voltage clamp, oocytes, concentration-response on Xenopus tropicalis α4β2 nAChR, α4β2(FS)

[3] = molecular target: T3, Xenopus tropicalis α4β2 nAChR, α4β2(FS) (Xenopus tropicalis, UniProt A0A8J0QAC2+A4IIS6)
T3 construct: gene chrna4; full-length single subunits in pCMV-SPORT6 (Dharmacon), cRNA co-injected in Xenopus laevis oocytes; stoichiometry unknown
Excerpt: as §1

[4] = molecular target: T4, Xenopus tropicalis α4β2 nAChR, α4β2(FS) (Xenopus tropicalis, UniProt A0A8J0QAC2+A4IIS6, A4IIS6:S133C)
T4 construct: gene chrna4; full-length single subunits in pCMV-SPORT6 (Dharmacon), cRNA co-injected in Xenopus laevis oocytes; stoichiometry unknown
Excerpt: as §1

CC(=O)OCC[N+](C)(C)C [acetylcholine]
EC50 [1]: 290 nM | EC50 [2]: 21 nM | EC50 [3]: 47 nM | EC50 [4]: 18 nM
